From ChEMBL document CHEMBL5729023, “Tricyclic compounds for use in treatment of proliferative disorders” (2022)

Target: PRMT5/MEP50 complex (Homo sapiens, UniProt O14744)
Test: Chemiluminescent Assay: A PRMT5 chemiluminescent assay was used to measure the […] activity of PRMT5. Biotinylated histone peptides were synthesized and attached to 384-well plates. Compound serial dilutions were performed and added to the assay plate. Histone H4 monomethyl R3 antibody was obtained from Abcam. A master mix for each well was prepared and human PRMT5/MEP50 (expressed in HEK293 cells) diluted in assay buffer to a concentration of 5 ng/μL. The reaction was incubated and slowly rotated for 60 minutes at the point of PRMT5/MEP50 addition. The supernatant from the wells was removed and blocking buffer was added to each well and rotated for 10 minutes. The primary antibody was diluted and added to every well for 60 minutes, before it was removed and the wells washed. The horse radish peroxidase (HRP)-coupled secondary antibody was diluted and added to each well with an incubation time of 30 minutes. The HRP chemiluminescent substrate was added to every well. The plate was read on a Flourstar Omega BMG Labtech instrument (Ortenberg, Germany) and the analysis of IC50 was performed using the Flourstar Omega BMG Labtech software.
Assay type: biochemical

PRMT5/MEP50 complex, sequence (O14744 whole entry): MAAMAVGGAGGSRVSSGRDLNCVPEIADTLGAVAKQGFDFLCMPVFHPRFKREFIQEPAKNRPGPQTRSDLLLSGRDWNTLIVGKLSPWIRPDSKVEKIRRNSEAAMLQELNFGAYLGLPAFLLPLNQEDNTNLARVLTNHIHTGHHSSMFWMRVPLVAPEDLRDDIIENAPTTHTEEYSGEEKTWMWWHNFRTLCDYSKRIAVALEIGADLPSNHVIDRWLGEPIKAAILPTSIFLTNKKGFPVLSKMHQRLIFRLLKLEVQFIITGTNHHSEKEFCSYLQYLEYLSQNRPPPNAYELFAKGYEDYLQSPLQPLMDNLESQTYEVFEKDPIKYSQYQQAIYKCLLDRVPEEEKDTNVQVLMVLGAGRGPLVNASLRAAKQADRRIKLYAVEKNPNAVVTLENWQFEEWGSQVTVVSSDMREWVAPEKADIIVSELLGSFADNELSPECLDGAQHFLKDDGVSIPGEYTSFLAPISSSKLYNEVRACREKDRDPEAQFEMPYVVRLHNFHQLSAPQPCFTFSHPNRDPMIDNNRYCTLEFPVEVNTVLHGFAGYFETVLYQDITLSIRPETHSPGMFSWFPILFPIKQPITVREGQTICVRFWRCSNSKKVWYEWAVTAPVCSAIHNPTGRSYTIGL
PRMT5/MEP50 complex, sequence (Q9BQA1 whole entry, further chain): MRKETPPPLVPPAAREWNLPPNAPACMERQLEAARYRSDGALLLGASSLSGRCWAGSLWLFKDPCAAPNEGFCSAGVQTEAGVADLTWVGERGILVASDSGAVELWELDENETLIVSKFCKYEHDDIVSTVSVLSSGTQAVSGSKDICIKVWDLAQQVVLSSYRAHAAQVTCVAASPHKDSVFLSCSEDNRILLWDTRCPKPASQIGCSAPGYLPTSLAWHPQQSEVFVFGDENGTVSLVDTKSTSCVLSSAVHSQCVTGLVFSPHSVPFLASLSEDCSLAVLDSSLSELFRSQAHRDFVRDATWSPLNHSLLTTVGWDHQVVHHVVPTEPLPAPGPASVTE

| Compound | IC50 [nM] |
| --- | --- |
| O=C(NCC(O)CN1CCc2[nH]c3ccccc3c2C1)c1ccc(C(=O)N2C3CCC2COC3)cc1 (centres undefined) | 1730 |
| O=C(NCC(O)CN1CCc2[nH]c3ccccc3c2C1)c1cc(NC2CCC2)ncn1 (centres undefined) | 1690 |
| Cn1c2c(c3ccccc31)CN(CC(O)CNC(=O)c1ccc(C(=O)N3C4CCC3COC4)cc1)CC2 (centres undefined) | 3340 |
| CN1CCN(c2nc(NC3CCC3)cc(C(=O)NCC(O)CN3CCc4[nH]c5ccccc5c4C3)n2)CC1 (centres undefined) | 528 |
